# Values of other authors as cited in patent publication US8227223B2, “Method and apparatus for facilitating evaluating migration of cells in vitro” (Applied Biophysics, Inc., priority 2009, dated 2012).
# Experiments:
# muscarinic receptor = conditions: CHO cells over expressing the muscarinic receptor
# β-adrenergic receptor = conditions: BAEC endothelial cells
# [1] = test system: confluent bovine aortic endothelial cells
compound,measurement,setting,value
C[N+](C)(C)CCOC(N)=O [carbachol],change of impedance upon binding of the agonist,muscarinic receptor; impedance at 4000 Hz,doubling of impedance
CC(C)NCC(O)c1ccc(O)c(O)c1 (stereo not shown) [isoproterenol],change of impedance of the cell layer upon agonist binding,β-adrenergic receptor,readily measured increase in the impedance
CN1CCN(CC(=O)N2c3ccccc3C(=O)Nc3cccnc32)CC1 [pirenzepine],inhibition of the carbachol impedance response,muscarinic receptor; antagonist against carbachol,can be inhibited
thrombin,change of impedance upon exposure (barrier function),[1],drop in impedance
